Results reported in the supplement of paper PMC8612539.
≈ marks a conversion by molar mass, not a printed value.

System: Escherichia coli
Test: minimum inhibitory concentration (MIC)
Description: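 Broth microdilution MIC (Sensititre BOPO7F bovine plate, CLSI methods) of 19 antimicrobials against field isolates of P. multocida, M. haemolytica, H. somni (deep nasopharyngeal swabs) and E. coli, Enterococcus spp. (rectal swabs) from weaned dairy heifers. Incubation 16-24 h at 35 C. MIC is the lowest concentration preventing visible growth. Values with <= or > lie at the tested range limits. Trimethoprim-sulfamethoxazole is given as the trimethoprim component of a 1:19 mixture.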

CC1(C)S[C@@H]2[C@H](NC(=O)Cc3ccccc3)C(=O)N2[C@H]1C(=O)O [Penicillin]
Settings	minimum inhibitory concentration [µg/mL]
isolate (source animal id): 8	> 8
isolate (source animal id): 9	> 8
isolate (source animal id): 10	> 8
isolate (source animal id): 11	> 8
isolate (source animal id): 12	> 8
isolate (source animal id): 13	> 8
isolate (source animal id): 14	> 8
isolate (source animal id): 15	> 8
isolate (source animal id): 16	> 8
isolate (source animal id): 98	> 8
isolate (source animal id): 99	> 8
isolate (source animal id): 100	> 8
isolate (source animal id): 101	4 (≈ 12 µM)
isolate (source animal id): 102	> 8
isolate (source animal id): 103	> 8
isolate (source animal id): 104	> 8
isolate (source animal id): 105	> 8
isolate (source animal id): 106	> 8
isolate (source animal id): 107	> 8
isolate (source animal id): 108	> 8
isolate (source animal id): 109	> 8
isolate (source animal id): 110	> 8
isolate (source animal id): 111	> 8
isolate (source animal id): 112	> 8
isolate (source animal id): 113	> 8
isolate (source animal id): 114	> 8
isolate (source animal id): 115	> 8
isolate (source animal id): 116	> 8
isolate (source animal id): 117	> 8
isolate (source animal id): 118	> 8
isolate (source animal id): 119	> 8
isolate (source animal id): 120	> 8
isolate (source animal id): 121	> 8
isolate (source animal id): 122	8 (≈ 23.9 µM)
isolate (source animal id): 123	> 8
isolate (source animal id): 124	> 8
isolate (source animal id): 125	> 8
isolate (source animal id): 126	> 8
isolate (source animal id): 127	> 8
isolate (source animal id): 128	> 8
isolate (source animal id): 129	> 8
isolate (source animal id): 130	> 8
isolate (source animal id): 131	> 8
isolate (source animal id): 132	> 8
isolate (source animal id): 133	> 8
isolate (source animal id): 134	> 8
isolate (source animal id): 135	> 8
isolate (source animal id): 136	> 8
isolate (source animal id): 137	> 8
isolate (source animal id): 138	> 8
isolate (source animal id): 139	8 (≈ 23.9 µM)
isolate (source animal id): 140	> 8
isolate (source animal id): 141	> 8
isolate (source animal id): 142	> 8
isolate (source animal id): 143	> 8
isolate (source animal id): 144	> 8
isolate (source animal id): 145	> 8
isolate (source animal id): 146	> 8
isolate (source animal id): 147	> 8
isolate (source animal id): 148	> 8
isolate (source animal id): 149	> 8
isolate (source animal id): 150	> 8
isolate (source animal id): 151	8 (≈ 23.9 µM)
isolate (source animal id): 152	> 8
isolate (source animal id): 153	> 8
isolate (source animal id): 154	> 8
isolate (source animal id): 155	> 8
isolate (source animal id): 156	> 8
isolate (source animal id): 157	> 8
isolate (source animal id): 158	> 8
isolate (source animal id): 159	> 8
isolate (source animal id): 160	> 8
isolate (source animal id): 161	> 8
isolate (source animal id): 162	> 8
isolate (source animal id): 163	> 8
isolate (source animal id): 164	> 8
isolate (source animal id): 165	> 8
isolate (source animal id): 166	> 8
isolate (source animal id): 167	> 8
isolate (source animal id): 168	> 8
isolate (source animal id): 169	> 8
isolate (source animal id): 170	> 8
isolate (source animal id): 171	> 8
isolate (source animal id): 172	> 8
isolate (source animal id): 173	> 8
isolate (source animal id): 174	> 8
isolate (source animal id): 175	> 8
isolate (source animal id): 176	> 8
isolate (source animal id): 177	> 8
isolate (source animal id): 178	> 8
isolate (source animal id): 179	> 8
isolate (source animal id): 180	> 8
isolate (source animal id): 181	> 8
isolate (source animal id): 182	> 8
isolate (source animal id): 183	> 8
isolate (source animal id): 184	> 8
isolate (source animal id): 185	> 8
isolate (source animal id): 186	> 8
isolate (source animal id): 187	> 8
isolate (source animal id): 188	> 8

CCCNC[C@]1(O)[C@H](C)O[C@@H](O[C@H]2[C@H](C)[C@@H](O[C@@H]3O[C@H](C)C[C@H](N(C)C)[C@H]3O)[C@](C)(O)C[C@@H](C)CN[C@H](C)[C@@H](O)[C@](C)(O)[C@@H](CC)OC(=O)[C@@H]2C)C[C@@]1(C)OC [Tulathromycin]
Settings	minimum inhibitory concentration [µg/mL]
isolate (source animal id): 8	≤ 8
isolate (source animal id): 9	16 (≈ 19.8 µM)
isolate (source animal id): 10	16 (≈ 19.8 µM)
isolate (source animal id): 11	≤ 8
isolate (source animal id): 12	≤ 8
isolate (source animal id): 13	≤ 8
isolate (source animal id): 14	≤ 8
isolate (source animal id): 15	≤ 8
isolate (source animal id): 16	≤ 8
isolate (source animal id): 98	≤ 8
isolate (source animal id): 99	≤ 8
isolate (source animal id): 100	≤ 8
isolate (source animal id): 101	≤ 8
isolate (source animal id): 102	≤ 8
isolate (source animal id): 103	≤ 8
isolate (source animal id): 104	16 (≈ 19.8 µM)
isolate (source animal id): 105	≤ 8
isolate (source animal id): 106	16 (≈ 19.8 µM)
isolate (source animal id): 107	16 (≈ 19.8 µM)
isolate (source animal id): 108	16 (≈ 19.8 µM)
isolate (source animal id): 109	≤ 8
isolate (source animal id): 110	≤ 8
isolate (source animal id): 111	≤ 8
isolate (source animal id): 112	≤ 8
isolate (source animal id): 113	≤ 8
isolate (source animal id): 114	≤ 8
isolate (source animal id): 115	64 (≈ 79.4 µM)
isolate (source animal id): 116	≤ 8
isolate (source animal id): 117	16 (≈ 19.8 µM)
isolate (source animal id): 118	≤ 8
isolate (source animal id): 119	32 (≈ 39.7 µM)
isolate (source animal id): 120	≤ 8
isolate (source animal id): 121	≤ 8
isolate (source animal id): 122	≤ 8
isolate (source animal id): 123	≤ 8
isolate (source animal id): 124	16 (≈ 19.8 µM)
isolate (source animal id): 125	≤ 8
isolate (source animal id): 126	16 (≈ 19.8 µM)
isolate (source animal id): 127	16 (≈ 19.8 µM)
isolate (source animal id): 128	≤ 8
isolate (source animal id): 129	≤ 8
isolate (source animal id): 130	≤ 8
isolate (source animal id): 131	≤ 8
isolate (source animal id): 132	≤ 8
isolate (source animal id): 133	≤ 8
isolate (source animal id): 134	≤ 8
isolate (source animal id): 135	≤ 8
isolate (source animal id): 136	≤ 8
isolate (source animal id): 137	≤ 8
isolate (source animal id): 138	32 (≈ 39.7 µM)
isolate (source animal id): 139	≤ 8
isolate (source animal id): 140	≤ 8
isolate (source animal id): 141	≤ 8
isolate (source animal id): 142	≤ 8
isolate (source animal id): 143	16 (≈ 19.8 µM)
isolate (source animal id): 144	16 (≈ 19.8 µM)
isolate (source animal id): 145	16 (≈ 19.8 µM)
isolate (source animal id): 146	16 (≈ 19.8 µM)
isolate (source animal id): 147	≤ 8
isolate (source animal id): 148	≤ 8
isolate (source animal id): 149	≤ 8
isolate (source animal id): 150	≤ 8
isolate (source animal id): 151	≤ 8
isolate (source animal id): 152	≤ 8
isolate (source animal id): 153	≤ 8
isolate (source animal id): 154	≤ 8
isolate (source animal id): 155	≤ 8
isolate (source animal id): 156	≤ 8
isolate (source animal id): 157	≤ 8
isolate (source animal id): 158	≤ 8
isolate (source animal id): 159	≤ 8
isolate (source animal id): 160	≤ 8
isolate (source animal id): 161	≤ 8
isolate (source animal id): 162	≤ 8
isolate (source animal id): 163	16 (≈ 19.8 µM)
isolate (source animal id): 164	≤ 8
isolate (source animal id): 165	≤ 8
isolate (source animal id): 166	≤ 8
isolate (source animal id): 167	16 (≈ 19.8 µM)
isolate (source animal id): 168	≤ 8
isolate (source animal id): 169	≤ 8
isolate (source animal id): 170	≤ 8
isolate (source animal id): 171	≤ 8
isolate (source animal id): 172	≤ 8
isolate (source animal id): 173	≤ 8
isolate (source animal id): 174	≤ 8
isolate (source animal id): 175	16 (≈ 19.8 µM)
isolate (source animal id): 176	≤ 8
isolate (source animal id): 177	≤ 8
isolate (source animal id): 178	≤ 8
isolate (source animal id): 179	≤ 8
isolate (source animal id): 180	≤ 8
isolate (source animal id): 181	≤ 8
isolate (source animal id): 182	16 (≈ 19.8 µM)
isolate (source animal id): 183	≤ 8
isolate (source animal id): 184	≤ 8
isolate (source animal id): 185	16 (≈ 19.8 µM)
isolate (source animal id): 186	≤ 8
isolate (source animal id): 187	≤ 8
isolate (source animal id): 188	≤ 8
